The values that follow come from PMC8286840, “Identifying SARS-CoV-2 antiviral compounds by screening for small molecule inhibitors of Nsp3 papain-like protease” (Biochemical Journal, 2021).

The target in experiment [1] is T1, SARS-CoV-2 PLpro (nsp3 1564–1878) (Severe acute respiratory syndrome coronavirus 2, UniProt P0DTD1). In words: biochemical. Also on record: FRET-quenched peptide (Pro3) cleavage by PLpro, 10 min pre-incubation, slope over 20 min, normalised to no-compound control. The settings on record: low concentration screen, read-out: % of control remaining.
Experiment [2] concerns the target T1, SARS-CoV-2 PLpro (nsp3 1564–1878). The experiment is described as follows: biochemical. More on the design: FRET-quenched peptide (Pro3) cleavage by PLpro, 10 min pre-incubation, slope over 20 min, normalised to no-compound control. The settings on record: high concentration screen, read-out: % of control remaining.

Structures can show the parent of a compound that is named as a salt. Where two headings read alike, the source gives them in different places.

For `CC(C[N+](C)(C)C)OC(N)=O` (stereo not drawn) [Bethanechol chloride], the remaining activity at 1.25 µM in experiment [1] (Well no.=322) turned out to be 102%. Also, the remaining activity at 3.75 µM in experiment [2] (Well no.=322) stood at 102%.

As to `C=C(C)[C@@H]1CC[C@]2(CO)CC[C@]3(C)[C@H](CC[C@@H]4[C@@]5(C)CC[C@H](O)C(C)(C)[C@@H]5CC[C@]43C)[C@@H]12` [Betulin], the remaining activity at 1.25 µM in experiment [1] (Well no.=3835) stood at 103%. Also, the remaining activity at 3.75 µM in experiment [2] (Well no.=3835) came out at 101%.

As for `C=C(C)[C@@H]1CC[C@]2(C(=O)O)CC[C@]3(C)[C@H](CC[C@@H]4[C@@]5(C)CC[C@H](O)C(C)(C)[C@@H]5CC[C@]43C)[C@@H]12` [Betulinic acid], the values for the remaining activity at 1.25 µM in experiment [1] (Well no.=3089) and in experiment [1] (Well no.=6646) were 102% and 105%, respectively. Besides, the remaining activity at 3.75 µM in experiment [2] (Well no.=3089) was found to be 101%; in experiment [2] (Well no.=6646) it was 100%.

As for `C=C(c1ccc(C(=O)O)cc1)c1cc2c(cc1C)C(C)(C)CCC2(C)C` [Bexarotene], in experiment [1] (Well no.=1814), the remaining activity at 1.25 µM was found to be 93.1%. Besides, the remaining activity at 3.75 µM in experiment [2] (Well no.=1814) worked out at 94.9%.

As to `CC(C)(Oc1ccc(CCNC(=O)c2ccc(Cl)cc2)cc1)C(=O)O` [Bezafibrate], the remaining activity at 1.25 µM in experiment [1] (Well no.=1660) was determined as 98.3%. In experiment [2] (Well no.=1660), the remaining activity at 3.75 µM worked out at 97.5%.

For the compound `C[C@@H](O)[C@H]1C(=O)N2C(C(=O)[O-])=C(SC3Cn4cnc[n+]4C3)[C@H](C)[C@H]12` (stereo partly drawn) [Biapenem], the remaining activity at 1.25 µM in experiment [1] (Well no.=5197) was determined as 99.1%. Also, the remaining activity at 3.75 µM in experiment [2] (Well no.=5197) came out at 100%.

For the compound `CC(O)(CS(=O)(=O)c1ccc(F)cc1)C(=O)Nc1ccc(C#N)c(C(F)(F)F)c1` (stereo not drawn) [Bicalutamide], the remaining activity at 1.25 µM in experiment [1] (Well no.=1860) amounted to 97.5%. The remaining activity at 3.75 µM in experiment [2] (Well no.=1860) worked out at 99.2%.

For `COC(=O)c1cc(OC)c2c(c1-c1c(CO)cc(OC)c3c1OCO3)OCO2` [Bicyclol], the remaining activity at 1.25 µM in experiment [1] (Well no.=5916) turned out to be 107%. For the same compound, the remaining activity at 3.75 µM in experiment [2] (Well no.=5916) worked out at 100%.

With `c1ccc(-c2ccc(C(c3ccccc3)n3ccnc3)cc2)cc1` (stereo not drawn) [Bifonazole], the remaining activity at 1.25 µM in experiment [1] (Well no.=2173) was determined as 99.6%. In experiment [2] (Well no.=2173), the remaining activity at 3.75 µM came out at 101%.

With `CCOCCn1c(C2CCN(CCc3ccc(C(C)(C)C(=O)O)cc3)CC2)nc2ccccc21` [Bilastine], in experiment [1] (Well no.=6188), the remaining activity at 1.25 µM turned out to be 101%. In addition, the remaining activity at 3.75 µM in experiment [2] (Well no.=6188) came to 100%.

As to `C=CC1=C(C)/C(=C/c2[nH]c(Cc3[nH]c(/C=C4\NC(=O)C(C)=C4C=C)c(C)c3CCC(=O)O)c(CCC(=O)O)c2C)NC1=O` [Bilirubin], the remaining activity at 1.25 µM in experiment [1] (Well no.=7013) was found to be 103%. Besides, in experiment [2] (Well no.=7013), the remaining activity at 3.75 µM was 104%.

`CC(C)(C)[C@]1(O)C[C@@H]2OC(=O)C[C@@]23C(=O)O[C@@H]2OC(=O)[C@H](O)[C@]213` [Bilobalide]: the remaining activity at 1.25 µM in experiment [1] (Well no.=3091) is 105%. Moreover, in experiment [2] (Well no.=3091), the remaining activity at 3.75 µM was 105%.

Turning to `CCNC(=O)CCC/C=C\C[C@@H]1[C@@H](/C=C/[C@@H](O)CCc2ccccc2)[C@H](O)C[C@@H]1O` [Bimatoprost], the remaining activity at 1.25 µM in experiment [1] (Well no.=5237) was 100%. Besides, the remaining activity at 3.75 µM in experiment [2] (Well no.=5237) worked out at 101%.

Take `COc1ccc(-c2coc3cc(O)cc(O)c3c2=O)cc1` [Biochanin A]: in experiment [1] (Well no.=3519), the remaining activity at 1.25 µM came to 103%. Moreover, the remaining activity at 3.75 µM in experiment [2] (Well no.=3519) worked out at 101%.

Consider `O=C(O)CCCC[C@@H]1SC[C@@H]2NC(=O)N[C@@H]21` [Biotin (Vitamin B7)], for which, in experiment [1] (Well no.=5359), the remaining activity at 1.25 µM stood at 98.1%. Further, in experiment [2] (Well no.=5359), the remaining activity at 3.75 µM came out at 95.3%.

Consider `N=C1S/C(=C\c2ccc(-c3ccc4c(c3)C(=O)NC4=O)o2)C(=O)N1c1ccc(Br)cc1` [Bioymifi], for which the remaining activity at 1.25 µM in experiment [1] (Well no.=6390) worked out at 96.5%. For the same compound, the remaining activity at 3.75 µM in experiment [2] (Well no.=6390) turned out to be 98%.

Consider `OC(CCN1CCCCC1)(c1ccccc1)C1C[C@@H]2C=C[C@H]1C2` (stereo partly drawn) [Biperiden (Hydrochloride)], for which the remaining activity at 1.25 µM in experiment [1] (Well no.=7434) came out at 97.8%. For the same compound, the remaining activity at 3.75 µM in experiment [2] (Well no.=7434) was 100%.

For `CC[C@H](NC(=O)[C@H](C)NC)C(=O)N1C[C@@H](O)C[C@H]1Cc1c(-c2[nH]c3cc(F)ccc3c2C[C@@H]2C[C@H](O)CN2C(=O)[C@H](CC)NC(=O)[C@H](C)NC)[nH]c2cc(F)ccc12` [Birinapant], the remaining activity at 1.25 µM in experiment [1] (Well no.=6542) turned out to be 95%. For the same compound, the remaining activity at 3.75 µM in experiment [2] (Well no.=6542) is 75.1%.

Turning to `O=C(/C=C/c1ccc(O)cc1)CC(=O)/C=C/c1ccc(O)cc1` [Bis demethoxycurcumin], in experiment [1] (Well no.=3466), the remaining activity at 1.25 µM turned out to be 102%. Also, the remaining activity at 3.75 µM in experiment [2] (Well no.=3466) is 103%.

For `CC(=O)Oc1ccc(C(c2ccc(OC(C)=O)cc2)c2ccccn2)cc1` [Bisacodyl], the remaining activity at 1.25 µM in experiment [1] (Well no.=2175) stood at 105%. In addition, in experiment [2] (Well no.=2175), the remaining activity at 3.75 µM was found to be 102%.

`O=C(/C=C/c1ccc(O)cc1)CC(=O)/C=C/c1ccc(O)cc1` [Bisdemethoxycurcumin]: the remaining activity at 1.25 µM in experiment [1] (Well no.=6536) came out at 97.5%. Also, the remaining activity at 3.75 µM in experiment [2] (Well no.=6536) came out at 92.4%.

As for `O=C1NC(=O)C(c2c[nH]c3ccccc23)=C1c1c[nH]c2ccccc12` [Bisindolylmaleimide IV], the remaining activity at 1.25 µM in experiment [1] (Well no.=2355) was determined as 101%. Further, in experiment [2] (Well no.=2355), the remaining activity at 3.75 µM was found to be 99.7%.

As for `CN(C)CCCn1cc(C2=C(c3c[nH]c4ccccc34)C(=O)NC2=O)c2ccccc21` [Bisindolylmaleimide I], the remaining activity at 1.25 µM in experiment [1] (Well no.=2325) was 97.2%. In addition, the remaining activity at 3.75 µM in experiment [2] (Well no.=2325) stood at 98.8%.

Take `CN1C(=O)C(c2c[nH]c3ccccc23)=C(c2c[nH]c3ccccc23)C1=O` [Bisindolylmaleimide V]: the remaining activity at 1.25 µM in experiment [1] (Well no.=2339) turned out to be 92.9%. The remaining activity at 3.75 µM in experiment [2] (Well no.=2339) came out at 91.1%.

`CC(C)NCC(O)COc1ccc(COCCOC(C)C)cc1` (stereo not drawn) [Bisoprolol]: the remaining activity at 1.25 µM in experiment [1] (Well no.=5109) is 96.8%. The remaining activity at 3.75 µM in experiment [2] (Well no.=5109) was 98.6%.

Regarding `Cc1c(N)nc([C@H](CC(N)=O)NC[C@H](N)C(N)=O)nc1C(=O)N[C@H](C(=O)N[C@H](C)[C@@H](O)[C@H](C)C(=O)N[C@H](C(=O)NCCc1nc(-c2nc(C(=O)NCCC[S+](C)C)cs2)cs1)[C@@H](C)O)[C@@H](O[C@@H]1O[C@@H](CO)[C@@H](O)[C@H](O)[C@@H]1O[C@H]1O[C@H](CO)[C@@H](O)[C@H](OC(N)=O)[C@@H]1O)c1cnc[nH]1` [Bleomycin sulfate], the remaining activity at 1.25 µM in experiment [1] (Well no.=3558) was found to be 107%. Also, the remaining activity at 3.75 µM in experiment [2] (Well no.=3558) is 107%.

`Cc1c(N)nc([C@H](CC(N)=O)NC[C@H](N)C(N)=O)nc1C(=O)N[C@H](C(=O)N[C@H](C)[C@@H](O)[C@H](C)C(=O)N[C@H](C(=O)NCCc1nc(-c2nc(C(=O)NCCC[S+](C)C)cs2)cs1)[C@@H](C)O)[C@@H](OC1OC(CO)C(O)C(O)C1OC1OC(CO)C(O)C(OC(N)=O)C1O)c1cnc[nH]1` (stereo partly drawn) [Bleomycin]: the remaining activity at 1.25 µM in experiment [1] (Well no.=1890) was 89.5%. In addition, the remaining activity at 3.75 µM in experiment [2] (Well no.=1890) stood at 91.9%.

On to `COc1cc2c(cc1O)C[C@H]1c3c(cc(O)c(OC)c3-2)CCN1C` [Boldine], for which the remaining activity at 1.25 µM in experiment [1] (Well no.=3166) came out at 102%. Further, the remaining activity at 3.75 µM in experiment [2] (Well no.=3166) was determined as 101%.

Turning to `Cc1cc2c(OCC(CNC(C)(C)C)OC(=O)c3ccccc3)cccc2[nH]1` (stereo not drawn) [Bopindolol], the remaining activity at 1.25 µM in experiment [1] (Well no.=1892) was determined as 96.2%. Further, in experiment [2] (Well no.=1892), the remaining activity at 3.75 µM came to 97.2%.
